From the supplement of paper PMC10307832

Legend:
Test in all cases: relative viability (nuclei count vs DMSO), 5 days (fraction); higher = more cells survive
NCI-H460 = tested on: NCI-H460
Procedure, shortened: (§1)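 Cells from lung cancer lines were seeded into 1536-well plates and, one day later, dosed by pin tool. Treatments were either a single drug or a fixed dose of an anchor drug with five library-drug doses (not always all listed) in √10 steps. After 5 days, nuclei were stained in a one-step fixation (final 0.05% Triton X-100, 1% formaldehyde, 1 ug/ml Hoechst) and counted on 4× images, and relative viability is the treated-to-vehicle nuclei ratio, as the median of duplicate plates.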

LC-2-ad = tested on: LC-2-ad
Procedure, shortened: as §1

HCC-15 = tested on: HCC-15
Procedure, shortened: as §1

NCI-H650 = tested on: NCI-H650
Procedure, shortened: as §1

NCI-H661 = tested on: NCI-H661
Procedure, shortened: as §1

NCI-H1651 = tested on: NCI-H1651
Procedure, shortened: as §1

A-427 = tested on: A-427
Procedure, shortened: as §1

PC-3 [JPC-3] = tested on: PC-3 [JPC-3]
Procedure, shortened: as §1

NCI-H596 = tested on: NCI-H596
Procedure, shortened: as §1

201T = tested on: 201T
Procedure, shortened: as §1

NCI-H441 = tested on: NCI-H441
Procedure, shortened: as §1

NCI-H2023 = tested on: NCI-H2023
Procedure, shortened: as §1

NCI-H520 = tested on: NCI-H520
Procedure, shortened: as §1

NCI-H2087 = tested on: NCI-H2087
Procedure, shortened: as §1

BEN = tested on: BEN
Procedure, shortened: as §1

NCI-H1915 = tested on: NCI-H1915
Procedure, shortened: as §1

NCI-H1944 = tested on: NCI-H1944
Procedure, shortened: as §1

ABC-1 = tested on: ABC-1
Procedure, shortened: as §1

LCLC-97TM1 = tested on: LCLC-97TM1
Procedure, shortened: as §1

H3255 = tested on: H3255
Procedure, shortened: as §1

CAL-12T = tested on: CAL-12T
Procedure, shortened: as §1

NCI-H727 = tested on: NCI-H727
Procedure, shortened: as §1

NCI-H1650 = tested on: NCI-H1650
Procedure, shortened: as §1

C[C@@H]1CN(CC(=O)Nc2ccc3c(c2)Cc2cccc(-c4cc(=O)cc(N5CCOCC5)o4)c2S3)C[C@H](C)O1 + COc1cc2c(Oc3ccc(NC(=O)C4(C(=O)Nc5ccc(F)cc5)CC4)cc3F)ccnc2cc1OCCCN1CCOCC1 [Foretinib] (partner 0.25 µM)
relative viability (NCI-H460; first compound 0.04 µM): 0.898 | relative viability (NCI-H460; first compound 0.1265 µM): 1.02 | relative viability (NCI-H460; first compound 0.4 µM): 1.1 | relative viability (NCI-H460; first compound 4 µM): 0.862 | relative viability (LC-2-ad; first compound 0.04 µM): 0.863 | relative viability (LC-2-ad; first compound 0.1265 µM): 0.921 | relative viability (LC-2-ad; first compound 0.4 µM): 0.913 | relative viability (LC-2-ad; first compound 4 µM): 0.874 | relative viability (HCC-15; first compound 0.04 µM): 1.05 | relative viability (HCC-15; first compound 0.1265 µM): 1.06 | relative viability (HCC-15; first compound 0.4 µM): 1.02 | relative viability (HCC-15; first compound 4 µM): 0.73 | relative viability (NCI-H650; first compound 0.04 µM): 0.993 | relative viability (NCI-H650; first compound 0.1265 µM): 0.977 | relative viability (NCI-H650; first compound 0.4 µM): 1.03 | relative viability (NCI-H650; first compound 4 µM): 0.875 | relative viability (NCI-H661; first compound 0.04 µM): 0.776 | relative viability (NCI-H661; first compound 0.1265 µM): 1.04 | relative viability (NCI-H661; first compound 0.4 µM): 0.953 | relative viability (NCI-H661; first compound 4 µM): 0.927 | relative viability (NCI-H1651; first compound 0.04 µM): 0.924 | relative viability (NCI-H1651; first compound 0.1265 µM): 1.14 | relative viability (NCI-H1651; first compound 0.4 µM): 0.96 | relative viability (NCI-H1651; first compound 4 µM): 0.679 | relative viability (A-427; first compound 0.04 µM): 1.05 | relative viability (A-427; first compound 0.1265 µM): 1.17 | relative viability (A-427; first compound 0.4 µM): 1.11 | relative viability (A-427; first compound 4 µM): 1.22 | relative viability (PC-3 [JPC-3]; first compound 0.04 µM): 1.02 | relative viability (PC-3 [JPC-3]; first compound 0.1265 µM): 0.998 | relative viability (PC-3 [JPC-3]; first compound 0.4 µM): 0.93 | relative viability (PC-3 [JPC-3]; first compound 4 µM): 0.884 | relative viability (NCI-H596; first compound 0.04 µM): 0.926 | relative viability (NCI-H596; first compound 0.1265 µM): 0.835 | relative viability (NCI-H596; first compound 0.4 µM): 0.909 | relative viability (NCI-H596; first compound 4 µM): 0.87 | relative viability (201T; first compound 0.04 µM): 0.93 | relative viability (201T; first compound 0.1265 µM): 1.06 | relative viability (201T; first compound 4 µM): 0.936 | relative viability (NCI-H441; first compound 0.04 µM): 0.925 | relative viability (NCI-H441; first compound 0.1265 µM): 0.978 | relative viability (NCI-H441; first compound 0.4 µM): 0.911 | relative viability (NCI-H441; first compound 4 µM): 0.934 | relative viability (NCI-H2023; first compound 0.04 µM): 0.732 | relative viability (NCI-H2023; first compound 0.1265 µM): 0.915 | relative viability (NCI-H2023; first compound 0.4 µM): 0.731 | relative viability (NCI-H2023; first compound 4 µM): 0.666 | relative viability (NCI-H520; first compound 0.04 µM): 0.86 | relative viability (NCI-H520; first compound 0.1265 µM): 0.88 | relative viability (NCI-H520; first compound 0.4 µM): 0.527 | relative viability (NCI-H520; first compound 4 µM): 0.613 | relative viability (NCI-H2087; first compound 0.04 µM): 1.15 | relative viability (NCI-H2087; first compound 0.1265 µM): 0.954 | relative viability (NCI-H2087; first compound 0.4 µM): 1.05 | relative viability (NCI-H2087; first compound 4 µM): 0.801 | relative viability (BEN; first compound 0.04 µM): 0.615 | relative viability (BEN; first compound 0.1265 µM): 0.552 | relative viability (BEN; first compound 0.4 µM): 0.593 | relative viability (BEN; first compound 4 µM): 0.623 | relative viability (NCI-H1915; first compound 0.04 µM): 1.06 | relative viability (NCI-H1915; first compound 0.1265 µM): 1.13 | relative viability (NCI-H1915; first compound 0.4 µM): 1.03 | relative viability (NCI-H1915; first compound 4 µM): 1.05 | relative viability (NCI-H1944; first compound 0.04 µM): 0.761 | relative viability (NCI-H1944; first compound 0.1265 µM): 0.888 | relative viability (NCI-H1944; first compound 0.4 µM): 0.926 | relative viability (NCI-H1944; first compound 4 µM): 0.912 | relative viability (ABC-1; first compound 0.1265 µM): 1.11 | relative viability (ABC-1; first compound 0.4 µM): 1.06 | relative viability (ABC-1; first compound 4 µM): 0.928 | relative viability (LCLC-97TM1; first compound 0.04 µM): 0.902 | relative viability (LCLC-97TM1; first compound 0.1265 µM): 0.862 | relative viability (LCLC-97TM1; first compound 0.4 µM): 0.959 | relative viability (LCLC-97TM1; first compound 4 µM): 0.969 | relative viability (H3255; first compound 0.04 µM): 1.02 | relative viability (H3255; first compound 0.1265 µM): 0.837 | relative viability (H3255; first compound 0.4 µM): 0.677 | relative viability (H3255; first compound 4 µM): 0.783 | relative viability (CAL-12T; first compound 0.04 µM): 1.13 | relative viability (CAL-12T; first compound 0.1265 µM): 1.06 | relative viability (CAL-12T; first compound 0.4 µM): 1.01 | relative viability (CAL-12T; first compound 4 µM): 0.764 | relative viability (NCI-H727; first compound 0.04 µM): 0.98 | relative viability (NCI-H727; first compound 0.1265 µM): 0.783 | relative viability (NCI-H727; first compound 0.4 µM): 0.826 | relative viability (NCI-H727; first compound 4 µM): 1 | relative viability (NCI-H1650; first compound 0.04 µM): 1.07 | relative viability (NCI-H1650; first compound 0.1265 µM): 1.14 | relative viability (NCI-H1650; first compound 0.4 µM): 1.04 | relative viability (NCI-H1650; first compound 4 µM): 0.678
